Assay results reported in US20090275070A1, “Compounds and Methods of Identifying, Synthesizing, Optimizing and Profiling Protein Modulators” (priority 2005, published 2009).

Columns and labels:
[1] = target: T1, Ba/F3 cells expressing p210Bcr-Abl-T315I (Homo sapiens, UniProt P00519, T315I, cells depend on it); assay: phenoresponse-based cellular assay (cell count and viability), Ba/F3 T315I test cells; design: species or system murine; settings: concentration inhibiting growth of the cell line by 50% in the cellular assay, read-out: T315I (IC50 activity category);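 note: cells counted by automated microcell imaging, viability scored by trypan blue exclusion, phenoresponse judged against parental Ba/F3 and Ba/F3 carrying wild-type p210Bcr-Abl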
T1 construct: fused on or other part: P11274 (Breakpoint cluster region protein)

[2] = tested on: wild type non-transformed Ba/F3 cells; assay: phenoresponse-based cellular assay, wild type Ba/F3 control cells; design: species or system murine; settings: Mus musculus; concentration inhibiting growth of the cell line by 50% in the cellular assay; wt BaF3 control cells; read-out: wt BaF3 (IC50 activity category)

| Compound | GI50 [1] | IC50 [2] |
| --- | --- | --- |
| Fc1cnc(N/N=C/c2ccc(Nc3cccc(C(F)(F)F)c3)cn2)nc1NCc1ccccc1 | < 300 nM | < 300 nM |
| Fc1cnc(N/N=C/c2ccc(Nc3cccc(C(F)(F)F)c3)cn2)nc1N1CCOCC1 | < 300 nM | < 300 nM |
| Cc1cccc(Cl)c1NC(=O)C/C=N/Nc1ncc(F)c(N2CCOCC2)n1 | > 10000 nM | ≥ 10000 nM |
| Fc1cnc(N/N=C/c2ccc(Nc3cccc(C(F)(F)F)c3)cn2)nc1NCCN1CCOCC1 | < 300 nM | < 300 nM |
| Cc1ccccc1/C=N/Nc1ncc(F)c(N2CCOCC2)n1 | > 10000 nM | ≥ 10000 nM |
| Oc1ccc(Br)cc1/C=N/Nc1ncc(F)c(N2CCOCC2)n1 | < 1000 nM | < 1000 nM |
| Cc1cc(Nc2ccc(/C=N/Nc3ncc(F)c(N4CCOCC4)n3)nc2)cc(N2CCNCC2)c1 | < 1000 nM | < 10000 nM |
| Fc1cnc(N/N=C/c2ccccn2)nc1N1CCOCC1 | < 1000 nM | < 1000 nM |
| CN(C)c1cc(O)cc(Nc2ccc(/C=N/Nc3ncc(F)c(N4CCOCC4)n3)nc2)c1 | < 1000 nM | < 10000 nM |
| O=C(Nc1cccc(C(F)(F)F)c1)c1cccc(/C=N/Nc2ncc(F)c(N3CCOCC3)n2)n1 | > 10000 nM | ≥ 10000 nM |
| Cc1ccc(/C=N/Nc2ncc(F)c(N3CCOCC3)n2)cc1 | > 10000 nM | ≥ 10000 nM |
| Oc1cccc(-c2cccc(Nc3ccc(/C=N/Nc4ncc(F)c(N5CCOCC5)n4)nc3)c2)c1 | < 300 nM | < 1000 nM |
| CN(/N=C/c1ccc(Nc2cccc(C(F)(F)F)c2)cn1)c1ncc(F)c(N2CCOCC2)n1 | < 300 nM | < 300 nM |
| O=C(C/C=N/Nc1ncc(F)c(N2CCOCC2)n1)Nc1cccc(C(F)(F)F)c1 | > 10000 nM | ≥ 10000 nM |
| Oc1ccccc1/C=N/Nc1ncc(F)c(N2CCOCC2)n1 | < 10000 nM | < 10000 nM |
| Oc1c(Cl)cc(-c2cccc(C(F)(F)F)c2)cc1/C=N/Nc1ncc(F)c(N2CCOCC2)n1 | < 300 nM | < 1000 nM |
| Cc1cccc(Cl)c1-c1ccc(Nc2ccc(/C=N/Nc3ncc(F)c(N4CCOCC4)n3)nc2)cc1 | < 300 nM | < 300 nM |
| Fc1cnc(N/N=C/c2ccc(Nc3cccc(C(F)(F)F)c3)cn2)nc1NCC1CC1 | < 300 nM | < 300 nM |

| Compound | GI50 [1] | IC50 [2] |
| --- | --- | --- |
| Fc1cnc(N/N=C/c2ccc(Nc3cccc(C(F)(F)F)c3)cn2)nc1-c1cncc(C2CC2)c1 | < 10000 nM | < 10000 nM |
| Fc1cnc(N/N=C/c2ccc(Nc3ccc(N4CCOCC4)cc3)cn2)nc1N1CCOCC1 | < 1000 nM | < 1000 nM |
| Oc1ccc(-c2ccc(Nc3ccc(/C=N/Nc4ncc(F)c(N5CCOCC5)n4)nc3)cc2C(F)(F)F)cc1 | < 300 nM | < 300 nM |
| Oc1c(Cl)cc(Br)cc1/C=N/Nc1ncc(F)c(N2CCOCC2)n1 | < 300 nM | < 1000 nM |
| Fc1cnc(N/N=C/c2ccccc2)nc1N1CCOCC1 | > 10000 nM | ≥ 10000 nM |
| Fc1cnc(N/N=C/c2ccc(Nc3cccc(-n4ccnc4)c3)cn2)nc1N1CCOCC1 | < 1000 nM | < 1000 nM |
| Cc1cc(Nc2cccc(C(F)(F)F)c2)ccc1/C=N/Nc1ncc(F)c(N2CCOCC2)n1 | > 10000 nM | ≥ 10000 nM |
| Fc1cnc(N/N=C/c2ccc(Nc3ccc(-c4ccccn4)c(Cl)c3)cn2)nc1N1CCOCC1 | < 1000 nM | < 1000 nM |
| Oc1cccc(-c2ccc(Nc3ccc(/C=N/Nc4ncc(F)c(N5CCOCC5)n4)nc3)cc2)c1 | < 300 nM | < 300 nM |
| Fc1cnc(N/N=C/c2ccc(Nc3cccc(C(F)(F)F)c3)cn2)nc1-c1cncc(-c2ccccc2)c1 | < 1000 nM | < 1000 nM |
| Oc1cccc(Nc2cccc(Nc3ccc(/C=N/Nc4ncc(F)c(N5CCOCC5)n4)nc3)c2)c1 | < 1000 nM | < 1000 nM |
| Fc1cnc(N/N=C/c2ccc(Nc3ccc(-c4cccnc4)cc3)cn2)nc1N1CCOCC1 | < 300 nM | < 1000 nM |
| CC(C(=O)O)c1ccc(Nc2ccc(/C=N/Nc3ncc(F)c(N4CCOCC4)n3)nc2)cc1 (stereo not drawn) | > 10000 nM | ≥ 10000 nM |
| O=C(Nc1cccc(C(F)(F)F)c1)c1ccc(/C=N/Nc2ncc(F)c(N3CCOCC3)n2)nc1 | < 1000 nM | < 10000 nM |
| O=C(NNc1ncc(F)c(N2CCOCC2)n1)c1ccc(Nc2cccc(C(F)(F)F)c2)cn1 | < 1000 nM | < 1000 nM |
| Fc1cnc(N/N=C/c2ccc(-c3cccc(C(F)(F)F)c3)cn2)nc1N1CCOCC1 | < 1000 nM | < 1000 nM |
| O=C(Nc1cccc(C(F)(F)F)c1)c1cc(Cl)c(O)c(/C=N\Nc2ncc(F)c(N3CCOCC3)n2)c1 | < 1000 nM | < 1000 nM |
| C/C(=N\Nc1ncc(F)c(N2CCOCC2)n1)c1ccc(Nc2cccc(C(F)(F)F)c2)cn1 | < 300 nM | < 300 nM |
